In US12331048B2, “Pyrido-[3,4-d]pyridazine amine derivatives useful as NLRP3 inhibitors” (Ventus Therapeutics U.S., Inc., priority 2022, dated 2025):
In brackets after ≈: the same amount, converted by molar mass. Read-outs that look alike come from different tables or passages of the source.

Assays:
NLRP3 = target: T1, NLRP3 (Homo sapiens, UniProt Q96P20); test: Human whole blood (hWB) NLRP3 assay; type: cell-based; settings: LPS priming 1 μg/ml, ATP activation, read-out: hWB IC50 (raw activity data)
T1 construct: endogenous in cells
Protocol: Heparin lithium coated tubes were used to collect blood from volunteers. Blood samples were distributed on 96 well plates using 90 μl per well. Priming was performed by adding 5 μl of LPS (O26:B6; Sigma L-2654) at a final concentration of 1 μg/ml for 4.5 hours in a humidified incubator with 37° C., 5% CO2. Thirty minutes prior to NLRP3 activation, 5 μl of a 20× compound solution or vehicle (2% DMSO) was added to each well and plates were incubated on a shaker (450 rpm) in a humidified incubator with 37° C., 5% CO2. Activation was then performed by adding 3.3 μl of a 31×ATP solution per well. At the end of the 30 minutes stimulation, the plates were centrifuged (800 g, 10 min. room temperature) and the plasma from each well was frozen at −80° C. […] levels in the supernatant were analyzed using a mesoscale discovery assay (MSD K151TUK) according to the manufacturers' instructions. Human whole blood was drawn from healthy volunteers after obtaining written informed consent.
Table D assigns each compound a code for potency in the human whole blood (hWB) NLRP3 Assay: A or B. According to the code. […] The corresponding raw activity data is also included.

[1] = Brain levels (kp and kpu,u) after oral administration; type: in vivo, CDI mice; settings: mice, 20 mpk PO; for Kp at 24 h / Kpu,u (unbound brain-to-plasma ratio): CDI, mouse, brain / plasma, po, 20 mg/kg; for Kp at 24 h: whole brain AUC over 24 h divided by plasma AUC
Protocol: The in vivo total brain to plasma ratio was assessed in CDI mice after oral administration of the compound. Blood was collected at several timepoints up to 24 h, and transferred into plastic micro centrifuge tubes with EDTA-K2 as anticoagulant. Blood samples were centrifuged at 4000 g for 5 minutes at 4° C. to obtain plasma, then immediately frozen and stored at −75±15° C. prior to analysis. Animals were terminally anaesthetized with a rising concentration of CO2 gas at about 1 minute. At selected timepoints, whole brains were removed from the skull, rinsed in cold PBS to remove blood, dried with clean gauze, then frozen in liquid nitrogen and kept at −75±15° C. before analysis. At the time of analysis, brain samples were homogenized with PBS by tissue weight (g) to PBS volume (mL) ratio 1:3. Plasma and brain drug levels were quantified by LC/MS/MS on a AB Sciex Triple Quad 5500+ instrument, after separation on a HALO 160A ES-C18, 2.7 μm 2.1-50 mm column. Quantitation was performed using a calibration curve prepared in blank plasma or blank brain homogenate. The software WinNonlin (Phoenix™) was used for pharmacokinetic analysis from the concentrations versus time data, including the AUCinf and AUClast. The Kp ratio (total brain concentration over total plasma concentration) was calculated as (AUCtot,br)/(AUCtot,pl).
The unbound brain exposure was assessed as Kpuu, which is the free brain/free plasma concentration ratio (Cu,br/Cu,pl). The Cu,br/Cu,pl ratios were obtained from in vivo total brain to plasma ratios (Ctot,br/Ctot,pl) by using in vitro determined Fu,br and Fu,pl.
Plasma protein binding and brain homogenate protein binding were measured by equilibrium dialysis in a HTDialysis plate. The dialysis membranes were soaked in ultrapure water for 60 minutes to separate strips, then in 20% ethanol for 20 minutes, finally in dialysis buffer for 20 minutes. The dialysis set up was assembled according to the manufacturer's instruction. Each cell received 150 μL of plasma or brain homogenate spiked with 1 mM of compound, and dialyzed against an equal volume of dialysis buffer (PBS). The dialysis plate was sealed and incubated in an incubator at 37° C. with 5% CO2 at 100 rpm for 6 hours. At the end of incubation, compound concentration was measured in both chambers by LC-MS/MS on a Triple Quad™ 5500 from AB Inc after separation on a XSelect Hss T3 2.5μ (2.1×30 mm) column. Free fraction (Fu) was calculated as (Peak Area Ratio buffer chamber/Peak Area Ratio plasma chamber).
Kpuu was calculated as (AUCtot,br×Fu,br)/(AUCtot,pl×Fu,pl).
The below table also assigns each compound a code for kp and kpu,u values: A or B. According to the code. A represents a value of >0.3 and B represents a value of ≤0.3. […] The kpu,u was then calculated upon correcting this kp value with mouse plasma protein binding and mouse brain homogenates binding. A Kpu,u value >0.3 is brain penetrant, and Kpu,u value less than or equal to 0.3 is not brain penetrant. N.D.=not determined. The corresponding raw kp and kpu,u data is also included.

[2] = Solubility in phosphate buffered solution (PBS, pH 7.4); type: physicochemical; settings: for solubility at 2 h: phosphate buffered solution (PBS), aqueous buffer, kinetic from dmso stock; for increase in solubility (PBS, pH 7.4) compared to Comparative Example 3: relative to Comparative Example 3 (6.7 uM)
Protocol: In additional embodiments, the solubility of compounds of the instant disclosure may be determined following known procedures, such as described in Alsenz and Kansy, Advanced Drug Delivery Reviews (2007) 59:546-567, and Wang et al. J Mass Spectrom. (2000) 35:71-76. For example, the kinetic solubility in physiologically relevant media, such as phosphate buffered solution (PBS, pH 7.4) or simulated gastric fluid (SGF), may be measured using serial dilution and two hour incubation period, followed by filtration, and reported in μM by LC-MS/MS. Thermodynamic solubility in physiologically relevant media may be measured by LC-MS/MS, after a twenty-four hour incubation, followed by filtration, and reported in mg/mL. Optimized solubility may be beneficial for manufacturing and further processing of the compound. Furthermore, optimized solubility allows for a more efficient in vitro analysis of the compound, including data collection around the compound's safety, drug-drug interactions, potency, selectivity, metabolism, and permeability. […]

[3] = kp corrected with mouse plasma protein binding and mouse brain homogenate binding

T1 sequence (Q96P20 whole entry): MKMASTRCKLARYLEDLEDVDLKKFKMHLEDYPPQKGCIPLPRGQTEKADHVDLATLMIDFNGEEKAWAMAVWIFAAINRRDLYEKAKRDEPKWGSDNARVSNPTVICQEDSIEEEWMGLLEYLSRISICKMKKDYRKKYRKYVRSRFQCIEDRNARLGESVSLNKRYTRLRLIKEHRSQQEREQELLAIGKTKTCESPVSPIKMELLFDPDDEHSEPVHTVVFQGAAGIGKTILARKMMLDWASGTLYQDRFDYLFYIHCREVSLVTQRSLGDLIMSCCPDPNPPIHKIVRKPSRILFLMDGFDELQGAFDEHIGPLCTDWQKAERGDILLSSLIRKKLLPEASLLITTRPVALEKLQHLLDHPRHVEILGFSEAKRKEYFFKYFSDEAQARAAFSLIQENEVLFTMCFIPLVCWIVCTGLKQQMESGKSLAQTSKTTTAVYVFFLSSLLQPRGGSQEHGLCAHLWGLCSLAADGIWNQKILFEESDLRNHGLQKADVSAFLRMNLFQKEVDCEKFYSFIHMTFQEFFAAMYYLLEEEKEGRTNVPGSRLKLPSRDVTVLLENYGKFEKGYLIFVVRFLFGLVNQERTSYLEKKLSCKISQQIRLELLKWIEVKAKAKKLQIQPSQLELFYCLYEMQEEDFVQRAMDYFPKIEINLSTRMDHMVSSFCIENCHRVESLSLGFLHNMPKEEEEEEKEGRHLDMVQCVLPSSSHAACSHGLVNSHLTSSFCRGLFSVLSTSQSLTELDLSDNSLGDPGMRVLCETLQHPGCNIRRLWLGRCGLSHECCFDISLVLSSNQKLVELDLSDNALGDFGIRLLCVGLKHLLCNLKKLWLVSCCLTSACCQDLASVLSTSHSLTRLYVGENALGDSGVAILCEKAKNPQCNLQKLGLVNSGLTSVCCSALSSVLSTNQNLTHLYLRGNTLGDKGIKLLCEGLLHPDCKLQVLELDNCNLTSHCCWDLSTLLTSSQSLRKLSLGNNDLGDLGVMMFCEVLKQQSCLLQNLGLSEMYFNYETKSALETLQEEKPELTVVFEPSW

Structure (SMILES) | IC50 (NLRP3) [nM] | Kp at 24 h ([1]; read-out: kp (code)) | Kp at 24 h ([1]; read-out: kp (raw)) | Kpu,u (unbound brain-to-plasma ratio) [1, 3] | kpu,u (code) [1, 3] | solubility at 2 h [2] [µM] | increase in solubility (PBS, pH 7.4) compared to Comparative Example 3 [2] [fold] | kpu,u (raw) [1, 3]
C[C@H]1COCC[C@H]1Nc1nnc(-c2ccc(Cl)cc2O)c2ccncc12 (single isomer, unassigned) [Compound 18*] | 890 | > 0.3 | 0.68 | 0.47 | A (A represents a value of >0.3) | – | – | –
C[C@@H]1COCC[C@H]1Nc1nnc(-c2ccc(Cl)cc2O)c2ccncc12 (single isomer, unassigned) [Compound 18A*] | 1100 | > 0.3 | 0.73 | 0.3 | A (A represents a value of >0.3) | – | – | –
C[C@H]1C[C@H](Nc2nnc(-c3ccc(Cl)cc3O)c3ccncc23)CCO1 (single isomer, unassigned) [Compound 25C*] | 1400 | > 0.3 | 0.65 | 0.099 | B (B represents a value of ≤0.3) | – | – | –
CC1(C)C[C@@H](Nc2nnc(-c3ccc(C(F)(F)F)cc3O)c3ccncc23)CCO1 (single isomer, unassigned) [Compound 11*] | 1400 | > 0.3 | 0.96 | 1.3 | A (A represents a value of >0.3) | – | – | –
CC1(C)COC[C@@H]1Nc1nnc(-c2ccc(Cl)cc2O)c2ccncc12 (single isomer, unassigned) [Compound 1*] | 1000 | > 0.3 | 0.9 | 0.31 | A (A represents a value of >0.3) | – | – | –
Cc1ccc(-c2nnc(N[C@H]3CCC(C)(C)OC3)c3cnccc23)c(O)c1 (single isomer, unassigned) [Compound 10*] | 1400 | > 0.3 | 0.35 | 0.51 | A (A represents a value of >0.3) | – | – | –
CC1(C)CC[C@H](Nc2nnc(-c3ccc(C(F)F)cc3O)c3ccncc23)CO1 (single isomer, unassigned) [Compound 20] | 890 | > 0.3 | 0.61 | 0.46 | A (A represents a value of >0.3) | – | – | –
CC1(C)OCC[C@H]1Nc1nnc(-c2ccc(C(F)(F)F)cc2O)c2ccncc12 (single isomer, unassigned) [Compound 22] | 960 | > 0.3 | 1.1 | 0.34 | A (A represents a value of >0.3) | – | – | –
CC1(C)COCC[C@@H]1Nc1nnc(-c2ccc(C(F)(F)F)cc2O)c2ccncc12 (single isomer, unassigned) [Compound 15] | 1200 | > 0.3 | 0.83 | 2.2 | A (A represents a value of >0.3) | – | – | –
CC1(C)C[C@@H](Nc2nnc(-c3ccc(Cl)cc3O)c3ccncc23)CO1 [Comparative Example 3, (R)-5-chloro-2-(4-((5,5-dimethyltetrahydrofuran-3-yl)amino)pyrido[3,4-d]pyridazin-1-yl)phenol, reference compound] | – | > 0.3 | 0.4 | – | A (A represents a value of >0.3) | 6.7 (≈ 2.48 µg/mL) | – | 0.43
C[C@@H]1C[C@@H](Nc2nnc(-c3ccc(Cl)cc3O)c3ccncc23)CCO1 (single isomer, unassigned) [Compound 25D*] | 1200 | > 0.3 | 1 | 0.2 | B (B represents a value of ≤0.3) | – | – | –

Next, values leading:

IC50 (NLRP3) [nM] | Kp at 24 h ([1]; read-out: kp (code)) | Kp at 24 h ([1]; read-out: kp (raw)) | Kpu,u (unbound brain-to-plasma ratio) [1, 3] | kpu,u (code) [1, 3] | solubility at 2 h [2] [µM] | increase in solubility (PBS, pH 7.4) compared to Comparative Example 3 [2] [fold] | kpu,u (raw) [1, 3] | Structure (SMILES)
660 | > 0.3 | 0.81 | 0.89 | A (A represents a value of >0.3) | – | – | – | CC1(C)C[C@@H](Nc2nnc(-c3ccc(Cl)cc3O)c3ccncc23)CCO1 (single isomer, unassigned) [Compound 4*]
460 | > 0.3 | 0.3 | 0.76 | A (A represents a value of >0.3) | 250 (≈ 92.1 µg/mL) | 37 | – | Cc1cc(O)c(-c2nnc(N[C@H]3COC(C)(C)C3)c3cnccc23)c(F)c1 (single isomer, unassigned) [Compound 21*]
61 | ≤ 0.3 | 0.24 | 0.52 | A (A represents a value of >0.3) | 45 (≈ 18.1 µg/mL) | 7 | – | CC1(C)C[C@@H](Nc2nnc(-c3ccc(OC(F)F)cc3O)c3ccncc23)CO1 (single isomer, unassigned) [Compound 9B*]
800 | ≤ 0.3 | 0.13 | 0.15 | B (B represents a value of ≤0.3) | – | – | – | Oc1cc(Cl)ccc1-c1nnc(N[C@H]2CCOC2)c2cnccc12 (single isomer, unassigned) [Compound 7*, reference compound]
330 | > 0.3 | 0.69 | 1.9 | A (A represents a value of >0.3) | – | – | – | CC1(C)COCC[C@@H]1Nc1nnc(-c2ccc(C(F)F)cc2O)c2ccncc12 (single isomer, unassigned) [Compound 17]
190 | > 0.3 | 0.58 | 2.2 | A (A represents a value of >0.3) | – | – | – | CC1(C)COCC[C@@H]1Nc1nnc(-c2ccc(Cl)cc2O)c2ccncc12 (single isomer, unassigned) [Compound 3*]
820 | > 0.3 | 0.33 | 1.3 | A (A represents a value of >0.3) | – | – | – | Cc1ccc(-c2nnc(N[C@H]3COC(C)(C)C3)c3cnccc23)c(O)c1F (single isomer, unassigned) [Compound 12]
